Reference: PubChem BioAssay AID2060889 (Molecular Pharmacology Branch, DTP, NCI, 2025)
Where “and” joins values, the source holds several entries; their conditions need not be identical. Equal values may be shown once.

System: LG0567-F671-PDC complex spheroids viability
Assay: Anticancer human tumor LG0567-F671-PDC patient-derived lung adenocarcinoma cell line growth inhibition [RAS]
Conditions: for viability, T/C: stronger effect = lower value
How it was run: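 Tumour cells grown as complex spheroids with HUVEC endothelial cells and mesenchymal stem cells, treated with RAS pathway inhibitor combinations. Each agent spans half-log steps from near clinical Cmax, or 10 microM where Cmax is unknown.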

[1] = curve of first compound, second compound 0.000949 µM
[2] = curve of first compound, second compound 0.003 µM
[3] = curve of first compound, second compound 0.00949 µM
[4] = curve of first compound, second compound 0.03 µM
[5] = curve of first compound, second compound 0.0949 µM
[6] = curve of first compound, second compound 0.3 µM
[7] = second compound 0.000949 µM, first compound 0.0316 µM
[8] = second compound 0.000949 µM, first compound 0.1 µM
[9] = second compound 0.000949 µM, first compound 0.316 µM
[10] = second compound 0.000949 µM, first compound 1 µM
[11] = second compound 0.003 µM, first compound 0.0316 µM
[12] = second compound 0.003 µM, first compound 0.1 µM
[13] = second compound 0.003 µM, first compound 0.316 µM
[14] = second compound 0.003 µM, first compound 1 µM
[15] = second compound 0.00949 µM, first compound 0.0316 µM
[16] = second compound 0.00949 µM, first compound 0.1 µM
[17] = second compound 0.00949 µM, first compound 0.316 µM
[18] = second compound 0.00949 µM, first compound 1 µM
[19] = second compound 0.03 µM, first compound 0.0316 µM
[20] = second compound 0.03 µM, first compound 0.1 µM
[21] = second compound 0.03 µM, first compound 0.316 µM
[22] = second compound 0.03 µM, first compound 1 µM
[23] = second compound 0.0949 µM, first compound 0.0316 µM
[24] = second compound 0.0949 µM, first compound 0.1 µM
[25] = second compound 0.0949 µM, first compound 0.316 µM
[26] = second compound 0.0949 µM, first compound 1 µM
[27] = second compound 0.3 µM, first compound 0.0316 µM
[28] = second compound 0.3 µM, first compound 0.1 µM
[29] = second compound 0.3 µM, first compound 0.316 µM
[30] = second compound 0.3 µM, first compound 1 µM
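Further: spheroids exposed to compound for seven days before readout.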
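Wherever IC50 is given: luminescence signal used as a proxy for viable cells.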

CC(=O)OC12COC1CC(O)C1(C)C(=O)C(O)C3=C(C)C(OC(=O)C(O)C(NC(=O)OC(C)(C)C)c4ccccc4)CC(O)(C(OC(=O)c4ccccc4)C21)C3(C)C (stereo not given) + C#Cc1c(F)ccc2cc(O)cc(-c3ncc4c(N5CC6CCC(C5)N6)nc(OCC56CCCN5CC(F)C6)nc4c3F)c12
IC50 (curve of first compound, second compound 0.0316 µM): < 31.6 nM | IC50 (curve of first compound, second compound 0.1 µM): < 31.6 nM | IC50 (curve of first compound, second compound 0.316 µM): < 31.6 nM | IC50 (curve of first compound, second compound 1 µM): < 31.6 nM | IC50 (curve of first compound, second compound 3.16 µM): < 31.6 nM | IC50 (curve of first compound, second compound 10 µM): < 31.6 nM | viability, T/C (second compound 0.0316 µM, first compound 0.0316 µM): 44.2% | viability, T/C (second compound 0.0316 µM, first compound 0.1 µM): 43% | viability, T/C (second compound 0.0316 µM, first compound 0.316 µM): 53.7% | viability, T/C (second compound 0.0316 µM, first compound 1 µM): 60% | viability, T/C (second compound 0.0316 µM, first compound 3.16 µM): 66.5% | viability, T/C (second compound 0.0316 µM, first compound 10 µM): 65.3% | viability, T/C (second compound 0.1 µM, first compound 0.0316 µM): 45.7% | viability, T/C (second compound 0.1 µM, first compound 0.1 µM): 40.1% | viability, T/C (second compound 0.1 µM, first compound 0.316 µM): 53.2% | viability, T/C (second compound 0.1 µM, first compound 1 µM): 56.7% | viability, T/C (second compound 0.1 µM, first compound 3.16 µM): 64.5% | viability, T/C (second compound 0.1 µM, first compound 10 µM): 59.4% | viability, T/C (second compound 0.316 µM, first compound 0.0316 µM): 34.9% | viability, T/C (second compound 0.316 µM, first compound 0.1 µM): 37.8% | viability, T/C (second compound 0.316 µM, first compound 0.316 µM): 45.4% | viability, T/C (second compound 0.316 µM, first compound 1 µM): 49.1% | viability, T/C (second compound 0.316 µM, first compound 3.16 µM): 60% | viability, T/C (second compound 0.316 µM, first compound 10 µM): 43.8% | viability, T/C (second compound 1 µM, first compound 0.0316 µM): 26.7% | viability, T/C (second compound 1 µM, first compound 0.1 µM): 24.8% | viability, T/C (second compound 1 µM, first compound 0.316 µM): 31.1% | viability, T/C (second compound 1 µM, first compound 1 µM): 37% | viability, T/C (second compound 1 µM, first compound 3.16 µM): 43.8% | viability, T/C (second compound 1 µM, first compound 10 µM): 30.8% | viability, T/C (second compound 3.16 µM, first compound 0.0316 µM): 16.1% | viability, T/C (second compound 3.16 µM, first compound 0.1 µM): 16.4% | viability, T/C (second compound 3.16 µM, first compound 0.316 µM): 19.9% | viability, T/C (second compound 3.16 µM, first compound 1 µM): 20.5% | viability, T/C (second compound 3.16 µM, first compound 3.16 µM): 23.9% | viability, T/C (second compound 3.16 µM, first compound 10 µM): 15.2% | viability, T/C (second compound 10 µM, first compound 0.0316 µM): 9.08% | viability, T/C (second compound 10 µM, first compound 0.1 µM): 7.93% | viability, T/C (second compound 10 µM, first compound 0.316 µM): 9.23% | viability, T/C (second compound 10 µM, first compound 1 µM): 8.41% | viability, T/C (second compound 10 µM, first compound 3.16 µM): 9.25% | viability, T/C (second compound 10 µM, first compound 10 µM): 5.64%

CCn1c(-c2cccnc2C(C)OC)c2c3cc(ccc31)N1CCOC(CC(NC(=O)C(C(C)C)N(C)C(=O)C3(F)CCN(C(=O)C#CC(C)(C)N(C)C)CC3)C(=O)N3CCCC(N3)C(=O)OCC(C)(C)C2)C1 (stereo not given)
viability, T/C (compound 0.000949 µM): 15.2% [middle of 8 runs] | viability, T/C (compound 0.003 µM): 15% [middle of 8 runs] | viability, T/C (compound 0.00949 µM): 15.1% [middle of 7 runs] | viability, T/C (compound 0.03 µM): 13.5% [middle of 8 runs] | viability, T/C (compound 0.0949 µM): 12.2% [middle of 8 runs] | viability, T/C (compound 0.3 µM): 10.3% [middle of 8 runs] | IC50 (compound alone, run of 08/20/2024): < 0.949 nM

Nc1ccn(C2OC(CO)C(O)C2(F)F)c(=O)n1 (stereo not given) + CCn1c(-c2cccnc2C(C)OC)c2c3cc(ccc31)N1CCOC(CC(NC(=O)C(C(C)C)N(C)C(=O)C3(F)CCN(C(=O)C#CC(C)(C)N(C)C)CC3)C(=O)N3CCCC(N3)C(=O)OCC(C)(C)C2)C1
IC50 [1]: < 3.16 nM | IC50 [2]: < 3.16 nM | IC50 [3]: < 3.16 nM | IC50 [4]: < 3.16 nM | IC50 [5]: < 3.16 nM | IC50 [6]: < 3.16 nM | viability, T/C (second compound 0.000949 µM, first compound 0.00316 µM): 15.8% | viability, T/C (second compound 0.000949 µM, first compound 0.01 µM): 15.7% | viability, T/C [7]: 14.1% | viability, T/C [8]: 14.4% | viability, T/C [9]: 15.3% | viability, T/C [10]: 13.8% | viability, T/C (second compound 0.003 µM, first compound 0.00316 µM): 15.6% | viability, T/C (second compound 0.003 µM, first compound 0.01 µM): 15.7% | viability, T/C [11]: 13.5% | viability, T/C [12]: 14.8% | viability, T/C [13]: 15.6% | viability, T/C [14]: 11.7% | viability, T/C (second compound 0.00949 µM, first compound 0.00316 µM): 12.5% | viability, T/C (second compound 0.00949 µM, first compound 0.01 µM): 14.3% | viability, T/C [15]: 13.6% | viability, T/C [16]: 13.2% | viability, T/C [17]: 14.1% | viability, T/C [18]: 14.1% | viability, T/C (second compound 0.03 µM, first compound 0.00316 µM): 12.3% | viability, T/C (second compound 0.03 µM, first compound 0.01 µM): 13.7% | viability, T/C [19]: 13.8% | viability, T/C [20]: 15% | viability, T/C [21]: 14% | viability, T/C [22]: 13% | viability, T/C (second compound 0.0949 µM, first compound 0.00316 µM): 11.1% | viability, T/C (second compound 0.0949 µM, first compound 0.01 µM): 10.2% | viability, T/C [23]: 11.4% | viability, T/C [24]: 10.1% | viability, T/C [25]: 12.1% | viability, T/C [26]: 11.6% | viability, T/C (second compound 0.3 µM, first compound 0.00316 µM): 10.6% | viability, T/C (second compound 0.3 µM, first compound 0.01 µM): 11.3% | viability, T/C [27]: 9.37% | viability, T/C [28]: 9.44% | viability, T/C [29]: 9.59% | viability, T/C [30]: 10%

C[C@@H](NC(=O)c1ncnc(N)c1Cl)c1ncc(C(=O)Nc2cc(C(F)(F)F)c(Cl)cn2)s1
viability, T/C (compound 0.0316 µM): 115% [middle of 4 runs] | viability, T/C (compound 0.1 µM): 120% (2×) and 125% (2×) | viability, T/C (compound 0.316 µM): 129% and 122% (2×) and 128% | viability, T/C (compound 1 µM): 121% [middle of 4 runs] | viability, T/C (compound 3.16 µM): 102% [middle of 4 runs] | viability, T/C (compound 10 µM): 79% [middle of 4 runs] | IC50 (curve of compound): > 10000 nM

CC(C)NCC(C(=O)N1CCN(c2ncnc3c2C(C)CC3O)CC1)c1ccc(Cl)cc1 (stereo not given) + CCn1c(-c2cc(N3CCN(C)CC3)cnc2C(C)OC)c2c3cc(ccc31)-c1csc(n1)CC(NC(=O)C1CC1C)C(=O)N1CCCC(N1)C(=O)OCC(C)(C)C2
IC50 [1]: < 31.6 nM | IC50 [2]: < 31.6 nM | IC50 [3]: < 31.6 nM | IC50 [4]: < 31.6 nM | IC50 [5]: < 31.6 nM | IC50 [6]: < 31.6 nM | viability, T/C [7]: 25.2% | viability, T/C [8]: 23.8% | viability, T/C [9]: 19.2% | viability, T/C [10]: 14.8% | viability, T/C (second compound 0.000949 µM, first compound 3.16 µM): 12.1% | viability, T/C (second compound 0.000949 µM, first compound 10 µM): 15.1% | viability, T/C [11]: 12.2% | viability, T/C [12]: 10.1% | viability, T/C [13]: 9.03% | viability, T/C [14]: 7.01% | viability, T/C (second compound 0.003 µM, first compound 3.16 µM): 6.61% | viability, T/C (second compound 0.003 µM, first compound 10 µM): 6.58% | viability, T/C [15]: 6.47% | viability, T/C [16]: 6.39% | viability, T/C [17]: 5.04% | viability, T/C [18]: 4.97% | viability, T/C (second compound 0.00949 µM, first compound 3.16 µM): 3.86% | viability, T/C (second compound 0.00949 µM, first compound 10 µM): 3.52% | viability, T/C [19]: 4.03% | viability, T/C [20]: 3.99% | viability, T/C [21]: 3.4% | viability, T/C [22]: 2.83% | viability, T/C (second compound 0.03 µM, first compound 3.16 µM): 2.4% | viability, T/C (second compound 0.03 µM, first compound 10 µM): 2.51% | viability, T/C [23]: 3.05% | viability, T/C [24]: 2.86% | viability, T/C [25]: 2.34% | viability, T/C [26]: 1.84% | viability, T/C (second compound 0.0949 µM, first compound 3.16 µM): 1.68% | viability, T/C (second compound 0.0949 µM, first compound 10 µM): 1.73% | viability, T/C [27]: 2.97% | viability, T/C [28]: 2.51% | viability, T/C [29]: 2.28% | viability, T/C [30]: 1.91% | viability, T/C (second compound 0.3 µM, first compound 3.16 µM): 1.51% | viability, T/C (second compound 0.3 µM, first compound 10 µM): 1.41%
